Experimental findings from PubChem BioAssay AID1259407 (Chemical Carcinogenesis Research Information System (CCRIS), 2018) are described below.

The test system of the series is CCRIS mutagenicity, Ames/micronucleus/aberration tests. In words: CCRIS mutagenicity studies.
Where [1] appears, read: Test System: AMES SALMONELLA TYPHIMURIUM, Strain/Indicator: TA100, Metabolic Activation: NONE.
The mark [2] stands for this setting: Test System: AMES SALMONELLA TYPHIMURIUM, Strain/Indicator: TA100, Metabolic Activation: NONE, Method: STANDARD PLATE.
[3] abbreviates: Test System: AMES SALMONELLA TYPHIMURIUM, Strain/Indicator: TA98, Metabolic Activation: NONE, Method: STANDARD PLATE.

The source made the active and inactive calls. The rule behind the calls is not given here.

In the case of `O=CC=O`, the mutagenic call (End Point: IN VITRO CHROMOSOMAL ABERRATIONS, Test System: CHL CELLS, Metabolic Activation: NONE) is “active; positive (structural and ploidy changes)”; the mutagenic call (End Point: IN VITRO CHROMOSOMAL ABERRATIONS, Test System: CHL CELLS, Metabolic Activation: RAT, LIVER, S-9, SODIUM PHENOBARBITAL AND 5,6-BENZOFLAVONE) is “active; positive (structural and ploidy changes)”; the mutagenic call (Test System: AMES SALMONELLA TYPHIMURIUM, Strain/Indicator: TA97, Metabolic Activation: NONE, Method: PREINCUBATION) is “inactive; negative”; the mutagenic call (Test System: AMES SALMONELLA TYPHIMURIUM, Strain/Indicator: TA98, Metabolic Activation: RAT, LIVER, S-9, AROCLOR 1254, Method: PREINCUBATION) is “active; positive”; the mutagenic call under setting [1] is “active; positive”; the mutagenic call under setting [2] was “active; positive”. For the same compound, the mutagenic call reads like this: (Test System: AMES SALMONELLA TYPHIMURIUM, Strain/Indicator: TA100, Metabolic Activation: RAT LIVER S-9, PHENOBARBITAL AND BETA-NAPHTHOFLAVONE, Method: PREINCUBATION) “active; positive”; (Test System: AMES SALMONELLA TYPHIMURIUM, Strain/Indicator: TA100, Metabolic Activation: RAT, LIVER, S-9, AROCLOR 1254, Method: PREINCUBATION) “active; positive”; (Test System: AMES SALMONELLA TYPHIMURIUM, Strain/Indicator: TA100, Metabolic Activation: RAT, LIVER, S-9, PHENOBARBITAL AND 5,6-BENZOFLAVONE, Method: PREINCUBATION) “active; positive”; (Test System: AMES SALMONELLA TYPHIMURIUM, Strain/Indicator: TA100, Metabolic Activation: S-9) “active; positive”; (Test System: AMES SALMONELLA TYPHIMURIUM, Strain/Indicator: TA102, Metabolic Activation: RAT, LIVER, S-9, AROCLOR 1254, Method: PREINCUBATION) “active; positive”; (Test System: AMES SALMONELLA TYPHIMURIUM, Strain/Indicator: TA102, Metabolic Activation: RAT, LIVER, S-9, AROCLOR 1254, Method: STANDARD PLATE) “active; positive”. Also, the mutagenic call was “active; positive” (Test System: AMES SALMONELLA TYPHIMURIUM, Strain/Indicator: TA102, Metabolic Activation: RAT, LIVER, S-9, PHENOBARBITAL AND 5,6-BENZOFLAVONE, Method: PREINCUBATION); “active; positive” (Test System: AMES SALMONELLA TYPHIMURIUM, Strain/Indicator: TA104, Metabolic Activation: NONE, Method: PREINCUBATION); “active; positive” (Test System: AMES SALMONELLA TYPHIMURIUM, Strain/Indicator: TA104, Metabolic Activation: RAT, LIVER, S-9, PHENOBARBITAL AND 5,6-BENZOFLAVONE, Method: PREINCUBATION); “active; positive” (Test System: AMES SALMONELLA TYPHIMURIUM, Strain/Indicator: TA1535, Metabolic Activation: RAT LIVER S-9, PHENOBARBITAL AND BETA-NAPHTHOFLAVONE, Method: PREINCUBATION); “active; positive” (Test System: AMES SALMONELLA TYPHIMURIUM, Strain/Indicator: TA1537, Metabolic Activation: NONE, Method: PREINCUBATION); “inactive; negative” (Test System: AMES SALMONELLA TYPHIMURIUM, Strain/Indicator: TA1537, Metabolic Activation: RAT LIVER S-9, PHENOBARBITAL AND BETA-NAPHTHOFLAVONE, Method: PREINCUBATION). The mutagenic call runs as follows: (Test System: AMES SALMONELLA TYPHIMURIUM, Strain/Indicator: TA2638A, Metabolic Activation: RAT LIVER S-9, AROCLOR 1254, Method: STANDARD PLATE) “active; positive”; (Test System: AMES SALMONELLA TYPHIMURIUM, Strain/Indicator: TA7001, Metabolic Activation: NONE, Method: PREINCUBATION) “inactive; negative”; (Test System: AMES SALMONELLA TYPHIMURIUM, Strain/Indicator: TA7002, Metabolic Activation: NONE, Method: PREINCUBATION) “inactive; negative”; (Test System: AMES SALMONELLA TYPHIMURIUM, Strain/Indicator: TA7003, Metabolic Activation: NONE, Method: PREINCUBATION) “inactive; negative”; (Test System: AMES SALMONELLA TYPHIMURIUM, Strain/Indicator: TA7004, Metabolic Activation: NONE, Method: PREINCUBATION) “active; positive”; (Test System: AMES SALMONELLA TYPHIMURIUM, Strain/Indicator: TA7005, Metabolic Activation: NONE, Method: PREINCUBATION) “active; positive”. Besides, the mutagenic call by setting is: (Test System: AMES SALMONELLA TYPHIMURIUM, Strain/Indicator: TA7006, Metabolic Activation: NONE, Method: PREINCUBATION) “active; positive”; (Test System: E. COLI, Strain/Indicator: W3110, Metabolic Activation: NONE, Method: PREINCUBATION) “active; positive”; (Test System: E. COLI, Strain/Indicator: WP2UVRA, Metabolic Activation: NONE, Method: PREINCUBATION) “active; positive”; (Test System: E. COLI, Strain/Indicator: WP2UVRA, Metabolic Activation: RAT LIVER S-9, PHENOBARBITAL AND BETA-NAPHTHOFLAVONE, Method: PREINCUBATION) “active; positive”; (Test System: MOUSE LYMPHOMA, Strain/Indicator: L5178Y (TK+/TK-), Metabolic Activation: NONE, Method: SUSPENSION/PLATE) “active; positive”.

Turning to `OCCN1CCN(CCCN2c3ccccc3Sc3ccc(C(F)(F)F)cc32)CC1`, the mutagenic call is “inactive; negative” (Test System: AMES SALMONELLA TYPHIMURIUM, Strain/Indicator: TA98, Metabolic Activation: NONE); “inactive; negative” (Test System: AMES SALMONELLA TYPHIMURIUM, Strain/Indicator: TA98, Metabolic Activation: RAT, LIVER, S-9, PHENOBARBITAL AND 5,6-BENZOFLAVONE); “inactive; negative” under setting [1]; “inactive; negative” (Test System: AMES SALMONELLA TYPHIMURIUM, Strain/Indicator: TA100, Metabolic Activation: RAT, LIVER, S-9, PHENOBARBITAL AND 5,6-BENZOFLAVONE); “inactive; negative” (Test System: AMES SALMONELLA TYPHIMURIUM, Strain/Indicator: TA1535, Metabolic Activation: NONE); “inactive; negative” (Test System: AMES SALMONELLA TYPHIMURIUM, Strain/Indicator: TA1535, Metabolic Activation: RAT, LIVER, S-9, PHENOBARBITAL AND 5,6-BENZOFLAVONE). The mutagenic call (Test System: AMES SALMONELLA TYPHIMURIUM, Strain/Indicator: TA1537, Metabolic Activation: NONE) was “inactive; negative”; the mutagenic call (Test System: AMES SALMONELLA TYPHIMURIUM, Strain/Indicator: TA1537, Metabolic Activation: RAT, LIVER, S-9, PHENOBARBITAL AND 5,6-BENZOFLAVONE) is “inactive; negative”; the mutagenic call (Test System: E. COLI, Strain/Indicator: WP2 UVRA, Metabolic Activation: NONE) was “inactive; negative”; the mutagenic call (Test System: E. COLI, Strain/Indicator: WP2 UVRA, Metabolic Activation: RAT, LIVER, S-9, PHENOBARBITAL AND 5,6-BENZOFLAVONE) was “inactive; negative”.

As to `c1ccc2c(c1)-c1cc3ccc4ccccc4c3cc1C1OC21` (stereo not given), the mutagenic call under setting [3] was “inactive; negative”; the mutagenic call under setting [2] is “inactive; negative”; the mutagenic call (Test System: AMES SALMONELLA TYPHIMURIUM, Strain/Indicator: TA1537, Metabolic Activation: NONE, Method: STANDARD PLATE) was “active; positive”; the mutagenic call (Test System: CHINESE HAMSTER V-79, Strain/Indicator: V-79/8-AZAGUANINE, Metabolic Activation: NONE, Method: STANDARD PLATE) was “active; positive”.

For `CC(=O)c1oc([N+](=O)[O-])c(Cl)c1Cl`, the mutagenic call was “active; positive” under setting [3]; “active; positive” (Test System: AMES SALMONELLA TYPHIMURIUM, Strain/Indicator: TA100 (NR), Metabolic Activation: NONE, Method: STANDARD PLATE); “active; positive” under setting [2]; “active; positive” (Test System: AMES SALMONELLA TYPHIMURIUM, Strain/Indicator: TA100, Metabolic Activation: NONE, Method: STANDARD PLATE (ANAEROBIC INCUBATION)).

As to `Cc1cc2ccccc2c2ccc3c(c12)[C@H]1O[C@H]1[C@@H](O)[C@@H]3O`, under “Test System: AMES SALMONELLA TYPHIMURIUM, Strain/Indicator: TA100, Metabolic Activation: NONE, Method: PREINCUBATION”, the mutagenic call was “active; positive”.

As for `Cc1cccc2c1cc1ccc3cccc4ccc2c1c34`, the mutagenic call was “inactive; negative” (Test System: AMES SALMONELLA TYPHIMURIUM, Strain/Indicator: TA100, Metabolic Activation: RAT, INTACT HEPATOCYTES, AROCLOR 1254, Method: PREINCUBATION) and “active; positive” (Test System: AMES SALMONELLA TYPHIMURIUM, Strain/Indicator: TA100, Metabolic Activation: RAT, NADPH-FORTIFIED HOMOGENIZED HEPATOCYTES, AROCLOR 1254, Method: PREINCUBATION).
